≈ marks a conversion by molar mass, not a printed value.
Columns and labels:
[1] = system: HUVEC; experiment: HUVEC proliferation, [3H]-thymidine incorporation assay; type: cell-based, human; conditions: HUVEC
Procedure: (§1) The inhibitory effects of the new analogs on HUVEC proliferation were measured using a [3H]-thymidine incorporation assay. The log P values, used as an indicator of lipophilicity, were calculated using ALOGPS2.1 software. Aqueous solubility is a key physiochemical property relevant for oral absorption. We determined the solubility of each analog in 0.001 N HCl (pH=3), which represents the acidic human gastric fluid.
HUVEC Culture and Proliferation Assays. HUVEC (Lonza) were grown in EGM-2 bullet kit media (Lonza) and used at passage eight or lower. The H thymidine incorporation assays were conducted as previously described. Briefly, cells were seeded on 96-well plate at a concentration of 2000 cells/well and allowed to settle overnight. Drugs were added to each well in triplicate. After 24 hours, cells were treated with 1 μCi of [3H] thymidine for 6 h. Then cells were harvested and transferred to filtermats. The scintillation were counted and IC50 were determined using Prism software (version 6.0).

[2] = system: HUVEC; experiment: as above; type: cell-based; conditions: Homo sapiens, mean ± SD, three independent experiments, read-out: HUVEC inhibition IC50
[3] = Aqueous solubility test in 0.001N HCl; type: physicochemical; conditions: 0.001 N HCl aqueous buffer, simulated gastric fluid, kinetic from dmso stock; thermodynamic solubility, HPLC, pH=3, room temperature, 24 h
Procedure: as §1
Aqueous solubility test. In a 1.5 mL microcentrifuge tube, 2 ul of 10 mM compound stock solution in DMSO was added to 1 mL 0.001N HCl aqueous buffer to obtain saturated solution. The resulting mixture was shaken under 600 rpm for 24 h at room temperature. Then the tube was centrifuged at 13,000 rpm for 5 min to remove the undissolved compound. 100 ul of the supernatant was injected to an Agilent 6120 LC/MS for analysis. The mass spectrometry data was collected under SIM/Scan mode. The ions of compound Exact Mass+1 and Exact Mass+23 were monitored as selected ion monitoring (SIM) for peak area integration. Solubility was calculated according to the concentration standard curve of each compound.

[4] = biological target: T1, CYP3A4 (Homo sapiens, UniProt P08684); experiment: CYP3A4 enzyme assay (Vivid CYP3A4 Green Screening Kit); type: in vitro ADME; conditions: dose-response, FIG. 2 / FIG. 6; read-out: IC50 for CYP3A4 inhibition
T1 construct: purchased ThermoFisher P2857; host or cells: baculosomes (insect-cell microsomes, own knowledge)
T1 sequence (P08684 whole entry): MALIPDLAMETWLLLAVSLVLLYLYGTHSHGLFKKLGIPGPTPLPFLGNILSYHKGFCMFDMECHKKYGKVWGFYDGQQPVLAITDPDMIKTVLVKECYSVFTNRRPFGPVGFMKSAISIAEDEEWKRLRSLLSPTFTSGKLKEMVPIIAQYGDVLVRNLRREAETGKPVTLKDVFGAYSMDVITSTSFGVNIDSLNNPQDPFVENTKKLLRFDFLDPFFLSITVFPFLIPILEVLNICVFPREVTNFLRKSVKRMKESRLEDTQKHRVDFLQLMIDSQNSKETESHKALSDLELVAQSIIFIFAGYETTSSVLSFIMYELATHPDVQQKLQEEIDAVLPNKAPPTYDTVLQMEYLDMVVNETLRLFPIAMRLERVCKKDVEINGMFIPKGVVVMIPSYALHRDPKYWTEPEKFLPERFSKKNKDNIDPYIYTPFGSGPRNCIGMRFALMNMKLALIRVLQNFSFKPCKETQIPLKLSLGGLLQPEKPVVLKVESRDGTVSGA
Procedure: And CYP3A4 inhibition was initially determined using a cell-free fluorescence-based assay at a final concentration of 1 μM (Table 2).
CYP3A4 enzyme assay. CYP3A4 enzyme activity was tested using Vivid™ CYP3A4 Green Screening Kit (ThermoFisher, #P2857) using the manufacturer's protocol. Briefly, CYP3A4 baculosomes and drugs were incubated 10 min at 37° C. Then Vivid® Substrates were added and the fluorescence (ex/em:485/520) were read every 1 min for 60 minute.

[5] = system: HUVECs; experiment: Filipin staining of intracellular cholesterol (NPC phenotype); type: cell-based, human; conditions: HUVEC, 0.2 μM, 24 h
From the text: Nieman-Pick C phenotype and mTOR inhibition. […] We thus determined whether compound 48 shared the same mechanism with itraconazole. The intracellular cholesterol was detected using the cholesterol-binding fluorescent dye filipin. […] It is known that AMPK activation leads to mTOR inhibition.
Inhibition of NPC1. NPC1 plays an essential role in cholesterol export from the endolysosome. […] At a close view (FIG. 9B), the linear pyridinyl-piperizin-1-yl-phenyl core of compound 14 nestled into the hydrophobic channel created by the transmembrane helix. The isobutyl tail faced toward the open entrance of this channel. The tetrazole moiety pointed into the closed end of the pocket and interacted with the hydroxyl group of Tyr1225 via hydrogen bonding.
Filipin staining. 2000 HUVECs were plated in chamber slide with 1 ml media and allowed to settle overnight. […] The the cells were fixed with 4% paraformaldehyde for 15 min. After washed, cells were incubated with 500 ul 50 ug/ml filipin solution for 1 hour in the dark. Then the cells were washed twice with PBS, mounted and covered with coverslip. The images were taken using confocal microscope under 360/460 nm.

SMILES	solubility at 24 h [3] [µg/mL]	IC50 [4] [nM]	HUVEC proliferation / anti-angiogenic potency compared to itraconazole, in words [1]	IC50 [2] [nM]	induction of NPC phenotype (cholesterol accumulation) [5]
CCC(C)n1ncn(-c2ccc(N3CCN(c4ccc(OC[C@@H]5CO[C@@](Cn6ccnc6)(c6ccc(Cl)cc6Cl)O5)cc4)CC3)c(F)c2)c1=O (stereo partly drawn) [Compound 1, 4-(4-(4-(4-(((2S,4R)-2-((1H-imidazol-1-yl)methyl)-2-(2,4-dichlorophenyl)-1,3-dioxolan-4-yl)methoxy)phenyl)piperazin-1-yl)-3-fluorophenyl)-2-(sec-butyl)-2,4-dihydro-3H-1,2,4-triazol-3-one]	17.2 (≈ 23.7 µM)	–	increased activities	70.1 ± 15.4	–
CCC(C)n1ncn(-c2ccc(N3CCN(c4ccc(OC[C@@H]5CO[C@@](Cn6ccnc6)(c6ccc(Cl)cc6Cl)O5)cn4)CC3)cc2)c1=O (stereo partly drawn) [Compound 4, 4-(4-(4-(5-(((2S,4R)-2-((1H-imidazol-1-yl)methyl)-2-(2,4-dichlorophenyl)-1,3-dioxolan-4-yl)methoxy)pyridin-2-yl)piperazin-1-yl)phenyl)-2-(sec-butyl)-2,4-dihydro-3H-1,2,4-triazol-3-one]	2.94 (≈ 4.16 µM)	2600	increased activities	69.1 ± 7	–
CCC(C)n1ncn(-c2ccc(N3CCN(c4ccc(OC[C@@H]5CO[C@@](Cn6ccnc6)(c6ccc(Cl)cc6Cl)O5)cn4)CC3)c(F)c2)c1=O (stereo partly drawn) [Compound 5, 4-(4-(4-(5-(((2S,4R)-2-((1H-imidazol-1-yl)methyl)-2-(2,4-dichlorophenyl)-1,3-dioxolan-4-yl)methoxy)pyridin-2-yl)piperazin-1-yl)-3-fluorophenyl)-2-(sec-butyl)-2,4-dihydro-3H-1,2,4-triazol-3-one]	125 (≈ 173 µM)	–	increased activities	68 ± 15.5	–
CCC(C)n1ncn(-c2ccc(N3CCN(c4ccc(OC[C@@H]5CO[C@@](Cn6ccnc6)(c6ccc(Cl)cc6Cl)O5)cc4)CC3)nc2)c1=O (stereo partly drawn) [Compound 6, 4-(6-(4-(4-(((2S,4R)-2-((1H-imidazol-1-yl)methyl)-2-(2,4-dichlorophenyl)-1,3-dioxolan-4-yl)methoxy)phenyl)piperazin-1-yl)pyridin-3-yl)-2-(sec-butyl)-2,4-dihydro-3H-1,2,4-triazol-3-one]	7.99 (≈ 11.3 µM)	–	increased activities	98.5 ± 36.3	–
CCC(C)n1ncn(-c2ccc(N3CCN(c4ccc(OC[C@@H]5CO[C@@](Cn6cnnn6)(c6ccc(Cl)cc6Cl)O5)cc4)CC3)c(F)c2)c1=O (stereo partly drawn) [Compound 8, 4-(4-(4-(4-(((2S,4R)-2-((1H-tetrazol-1-yl)methyl)-2-(2,4-dichlorophenyl)-1,3-dioxolan-4-yl)methoxy)phenyl)piperazin-1-yl)-3-fluorophenyl)-2-(sec-butyl)-2,4-dihydro-3H-1,2,4-triazol-3-one]	0.0528 (≈ 0.0729 µM)	> 100000	–	153 ± 32.7	massive build-up of cholesterol
CCC(C)n1ncn(-c2ccc(N3CCN(c4ccc(OC[C@@H]5CO[C@@](Cn6cnnn6)(c6ccc(Cl)cc6Cl)O5)cn4)CC3)c(F)c2)c1=O (stereo partly drawn) [Compound 15, 4-(4-(4-(5-(((2S,4R)-2-((1H-tetrazol-1-yl)methyl)-2-(2,4-dichlorophenyl)-1,3-dioxolan-4-yl)methoxy)pyridin-2-yl)piperazin-1-yl)-3-fluorophenyl)-2-(sec-butyl)-2,4-dihydro-3H-1,2,4-triazol-3-one]	0.708 (≈ 0.975 µM)	37000	–	108 ± 8.6	massive build-up of cholesterol
CCC(C)n1ncn(-c2ccc(N3CCN(c4ccc(OC[C@@H]5CO[C@@](Cn6cncn6)(c6ccc(Cl)cc6Cl)O5)cn4)CC3)cc2)c1=O (stereo partly drawn) [Compound 101, 4-(4-(4-(5-(((2S,4R)-2-((1H-1,2,4-triazol-1-yl)methyl)-2-(2,4-dichlorophenyl)-1,3-dioxolan-4-yl)methoxy)pyridin-2-yl)piperazin-1-yl)phenyl)-2-(sec-butyl)-2,4-dihydro-3H-1,2,4-triazol-3-one]	0.114 (≈ 0.161 µM)	3400	–	380 ± 50.8	–

Now from value to molecule, other results behind:

solubility at 24 h [3] [µg/mL]	IC50 [4] [nM]	SMILES	HUVEC proliferation / anti-angiogenic potency compared to itraconazole, in words [1]	IC50 [2] [nM]	induction of NPC phenotype (cholesterol accumulation) [5]
0.496 (≈ 0.703 µM)	–	CCC(C)n1ncn(-c2ccc(N3CCN(c4ccc(OC[C@@H]5CO[C@@](Cn6cncn6)(c6ccc(Cl)cc6Cl)O5)cc4)CC3)cn2)c1=O (stereo partly drawn) [Compound 103, 4-(5-(4-(4-(((2S,4R)-2-((1H-1,2,4-triazol-1-yl)methyl)-2-(2,4-dichlorophenyl)-1,3-dioxolan-4-yl)methoxy)phenyl)piperazin-1-yl)pyridin-2-yl)-2-(sec-butyl)-2,4-dihydro-3H-1,2,4-triazol-3-one]	–	188 ± 17.5	–
0.0291 (≈ 0.0402 µM)	–	CCC(C)n1ncn(-c2ccc(N3CCN(c4ccc(OC[C@@H]5CO[C@@](Cn6cncn6)(c6ccc(Cl)cc6Cl)O5)cc4)CC3)c(F)c2)c1=O (stereo partly drawn) [Compound 104, 4-(4-(4-(4-(((2S,4R)-2-((1H-1,2,4-triazol-1-yl)methyl)-2-(2,4-dichlorophenyl)-1,3-dioxolan-4-yl)methoxy)phenyl)piperazin-1-yl)-3-fluorophenyl)-2-(sec-butyl)-2,4-dihydro-3H-1,2,4-triazol-3-one]	–	128 ± 59.7	–
0.255 (≈ 0.352 µM)	–	CCC(C)n1ncn(-c2ccc(N3CCN(c4ccc(OC[C@@H]5CO[C@@](Cn6cncn6)(c6ccc(Cl)cc6Cl)O5)nc4)CC3)c(F)c2)c1=O (stereo partly drawn) [Compound 105, 4-(4-(4-(6-(((2S,4R)-2-((1H-1,2,4-triazol-1-yl)methyl)-2-(2,4-dichlorophenyl)-1,3-dioxolan-4-yl)methoxy)pyridin-3-yl)piperazin-1-yl)-3-fluorophenyl)-2-(sec-butyl)-2,4-dihydro-3H-1,2,4-triazol-3-one]	–	446 ± 38.3	–
0.848 (≈ 1.17 µM)	–	CCC(C)n1ncn(-c2ccc(N3CCN(c4ccc(OC[C@@H]5CO[C@@](Cn6cncn6)(c6ccc(Cl)cc6Cl)O5)cn4)CC3)c(F)c2)c1=O (stereo partly drawn) [Compound 106, 4-(4-(4-(5-(((2S,4R)-2-((1H-1,2,4-triazol-1-yl)methyl)-2-(2,4-dichlorophenyl)-1,3-dioxolan-4-yl)methoxy)pyridin-2-yl)piperazin-1-yl)-3-fluorophenyl)-2-(sec-butyl)-2,4-dihydro-3H-1,2,4-triazol-3-one]	–	173 ± 27.6	–
